Columns and labels:
Format in all cases: cell-based, human
MCF-7/Ac1 cells [1] = assay: Cell cycle analysis by flow cytometry (PI); conditions: letrozole with 25 nM AD, concentration not given
Method: Cell cycle analysis. MCF-7/Ac1 cells were cultured in estrogen-deprived media with or without 25 nM 4-androstenedione, and treated with different concentrations of aromatase inhibitors. Untreated and drug treated cells were collected 72 hours later for flow cytometry and lysates were prepared for western blot and kinase assays.
(§1) Flow cytometry analysis. Cells were pelleted and resuspended in 1.5 ml of PBS, then fixed in 3.5 ml of 95% ethanol overnight at −20° C. After being washed, the pellets were resuspended in a solution of PBS containing 10 μg/ml propidium iodide, 20 μg/ml RNase A, 0.5% Tween 20, and 0.5% BSA and incubated at 37° C. for 30 min. The profiles of cells in the G0-G1, S, and G2-M phases of the cell cycle were analyzed at the M. D. Anderson Cancer Center Cytometry Core Facility on a FACS Caliber machine equipped with Cellquest or ModFit software.
FIGS. 22A-22C show the effect of aromatase inhibitor treatment on proliferative response and cell cycle distribution of MCF-7/Ac1 cells. Cells were cultured in IMEM with 10% charcoal-stripped serum medium (CSSM) without phenol red and with 600 μg/ml of G418 for 4 days before plating. Cells (100,000) were seeded in 100 mm dishes and, 24 hrs later, were exposed for 3 days to the specific treatment. […] Cell growth is expressed as the percentage of the cells compared with the control cells (25 nM AD treated cells, 575,000 cells at day 3). Columns, mean of two to three experiments, each in triplicates; bars, S.D. *, P<0.05, when compared to cells only treated with 25 nM AD; n.s, not significant. CSSM, untreated cells cultured in charcoal-stripped serum medium without phenol red and with 600 μg/ml of G418.

[2] = system: CDK2-associated kinase activity in MCF-7/Ac1 cells; assay: CDK2-associated kinase assay (histone H1); conditions: with 25 nM AD, 3 days
Method: FIG. 28. Effect of increasing concentrations of letrozole in the presence of 25 nM AD on CDK2 kinase activity, activated CDK2 and Rb phosphorylation of MCF7/Ac1 human breast cancer cells. MCF-7/Ac1 cells were treated with the indicated concentrations of letrozole and AD for 3 days. CDK2 kinase assays were performed by immunoprecipitating equal amounts of cell lysate (250 μg) with monoclonal antibodies to CDK2 (D12, sc-6248) coupled to protein G beads, using histone H1 as substrate. […] The same cell lysates were subjected to western blot analysis (50 μg of protein) with the indicated antibodies.

MCF-7/Ac1 cells [3] = assay: S-phase fraction by flow cytometry of adenovirus-infected cells; conditions: 1 μM letrozole with 25 nM AD
Method: as §1
LMW cyclin E, but not full-length cyclin E, overexpressing MCF-7/Ac1 cells partially override the letrozole inhibition of AD-induced S-phase entry and AD-induced CDK2 protein levels. Since overexpression of LMW cyclin E deregulates the G1 to S transition, the inventors interrogated the role of full-length and LMW cyclin E in letrozole response. To this end, the inventors examined the sensitivity of cyclin E overexpressing MCF-7/Ac1 cells to the growth inhibitory effect of letrozole using adenoviruses to overexpress full-length and LMW cyclin E (FIGS. 24A-24D). MCF-7/Ac1 cells were cultured in charcoal stripped serum media (CSSM) for 4 days before infecting them with 4000 m.o.i. of either LacZ, full-length cyclin E (cyclin EL) or LMW cyclin E (cyclin E-T1 and cyclin E-T2). Twenty-four hours later, cells were left either untreated, treated with 25 nM AD alone, or treated with 25 nM AD plus 1 μM letrozole for an additional 3 days (FIGS. 24A-24B). Following the treatment, cells were enumerated or subjected to flow cytometry analysis.
MCF-7/Ac1 cells were cultured in IMEM with 10% charcoal-stripped serum medium (CSSM) without phenol red and with 600 μg/ml of G418 for 4 days before plating. Triplicate wells of 6-well plates were then infected with the indicated adenoviruses (at 4000 m.o.i.) 24 hours before drug treatment. Cells were then left untreated (E2W, estrogen withdrawal) or treated with 25 nM AD (AD) or treated with 25 nM AD and 1 μM letrozole (AD+Let) and collected 3 days later for cell number. Cell growth is expressed as the percentage of the cells compared with the control cells (25 nM AD treated cells). […] MCF-7/Ac1 cells were treated as described in A, and collected for flow cytometry analysis. Histograms represent the S-phase fraction expressed as the percentage of the cells in S-phase compared with the control cells (25 nM AD treated cells). […] The same cell lysates as in A and B were subjected to western blot analysis (50 μg of protein) with cyclin E and CDK2 antibodies. The bar graph represents the densitometric values of the phosphorylated CDK2 bands. […] Left, MCF-7/Ac1 cells were cultured in IMEM with 10% charcoal-stripped serum medium (CSSM) without phenol red and with 600 μg/ml of G418 for 4 days before plating. Cells were then infected with the indicated adenoviruses (at 4000 m.o.i.) 24 hours before drug treatment. Cells were then treated with 25 nM AD and 1 μM letrozole and collected 3 days later for cell number. […] Columns, mean of two to three experiments, each in triplicates; bars, S.D.

## N#Cc1ccc(C(c2ccc(C#N)cc2)n2cncn2)cc1 [letrozole]
MCF-7/Ac1 cells [1]
  cells in G0/G1: 61.2+/−1.5%
  cells in S phase: 13.1+/−2.3%
[2]
  concentration that blocked the AD-induced increase in CDK2-associated kinase activity: ≤ 0.125 µM
MCF-7/Ac1 cells [3]; LacZ-infected cells
  decrease in number of cells in S phase: 37%
MCF-7/Ac1 cells [3]; cyclin E-T1-infected cells
  decrease in number of cells in S phase: 16%
MCF-7/Ac1 cells [3]; cyclin E-T2-infected cells
  decrease in number of cells in S phase: 21%
MCF-7/Ac1 cells [3]; cyclin EL-infected cells
  decrease in number of cells in S phase: 42%
MCF-7/Ac1 cells [3]; uninfected cells
  decrease in number of cells in S phase: 62%
